The text below walks through data of patent publication EP1223171A1, “Antimicrobial 5-substituted-3-isothiazolone compounds and methods of use” (Rohm and Haas, priority 2001, dated 2002).

For orientation: MIC means the smallest concentration in the dilution series that meets the test's criterion for growth inhibition.

Experiment in all cases: high resolution minimum inhibitory concentration (HRMIC) test
Format in all cases: cell-based

The subject of one assay is Escherichia coli 8739. The following applies: for better control versus Gram-negative (E. coli) bacteria than compound 6: ratio of MIC relative to compound 6 (MIC >1000 ppm). The procedure:
(§1) Biological Activity: certain compounds of the present invention were tested for activity against three microorganisms, Escherichia coli 8739 (Gram-negative bacterium) and Staphylococcus aureus 6538 (Gram-positive bacterium) and Aspergillus niger 16404.
(§2) The lowest concentration of test compound required to inhibit Staphylococcus aureus 6538, Escherichia coli 8739 and Aspergillus niger 16404 was determined by a high resolution minimum inhibitory concentration (HRMIC) test. Varying amounts of the test compounds were added to minimal salts glucose medium (see T. Maniatis, E.F. Fritsch and J. Sambrook, Molecular Cloning, p 68 (1982)) supplemented with 0.1% yeast extract (M9GY) in a 96-well microtiter plate. Ten-fold serial dilutions were performed on a Biomek™ 2000 Workstation to obtain a range of closely spaced concentrations of test compound as shown in Table 1 (based on dilutions of a 10,000 ppm active ingredient stock solution of the test compound). The plates were inoculated with cell suspension of inoculum and adjusted to provide about 10^6 CFU (colony forming units)/ml in each well. The microtiter plates were incubated at 30°C for 24 hours and then checked (optical density at 650 nm using a microplate reader) for the presence or absence of microbial growth in each well. […] Data reported (ppm active ingredient) are the average of multiple determinations (see Table 2).

The subject of a further assay is Aspergillus niger 16404. Conditions: ppm active ingredient, M9GY medium, about 10^6 CFU/ml, 30°C for 24 hours, average of multiple determinations. How it is done: as §1, §2
The test system of assay [1] is Staphylococcus aureus 6538. How it is done:
as §1, §2

≈ marks a conversion by molar mass, not a printed value.

For the compound `CCCCCCCCn1sc(Sc2cccc[n+]2[O-])c(Cl)c1=O` [Compound 5, [4-chloro-2-n-octyl-3-isothiazolon-5-yl]-(1-oxypyridin-2-yl)sulfide], the “better control versus Gram-negative (E. coli) bacteria than compound 6” value in the assay with Escherichia coli 8739 was “at least 30 fold”.
In the case of `Cn1sc(Sc2cccc[n+]2[O-])cc1=O` [Compound 3, [2-methyl-3-isothiazolon-5-yl]-(1-oxypyridin-2-yl)sulfide], the minimum inhibitory concentration (MIC) in the assay with Aspergillus niger 16404 stood at 60 µg/mL (≈ 250 µM); with Escherichia coli 8739 (Escherichia coli, 8739, ppm active ingredient, M9GY medium, about 10^6 CFU/ml, 30°C for 24 hours, average of multiple determinations, read-out: MIC (ppm) E. coli), 6 µg/mL (≈ 25 µM); in assay [1] (Staphylococcus aureus, 6538, ppm active ingredient, M9GY medium, about 10^6 CFU/ml, 30°C for 24 hours, average of multiple determinations, read-out: MIC (ppm) S. aur), 1 µg/mL (≈ 4.16 µM). In addition, the “better control versus Gram-negative (E. coli) bacteria than compound 6” value in the assay with Escherichia coli 8739 is reported as ≥ 160 fold. The “better control versus Gram-positive (S. aur) bacteria than compound 6” value in assay [1] (ratio of MIC relative to compound 6) is reported as 5 fold.
